Here are results for nine compounds from patent US8486464B2, “Herbal composition for angina pectoris, method to prepare same and uses thereof” (Tasly Pharmaceutical Group Co. Ltd., priority 2000, dated 2013).

Read-outs that look alike come from different tables or passages of the source.

Data set [1] relates to polychromatic RBCs. Put plainly: Micronucleus rates in mice. The note with it: 80 mg/kg; 24 hrs. The class given is in vivo.
For data set [2] the following is noted: cited from earlier work.
The conditions of data set [3]: cited from earlier work. The source holds these as a separate data set.
In data set [4] the test system is CK, LDH. Put plainly: Dog blood serum CK and LDH. The class given is in vivo. Particulars: dogs, Dan Shen Pill 2 g/kg. How it is done: (§1) 1.1 Experimental Groups. (1) Blank control group, normal saline 3 ml/kg; (2) DSP group, 2 g natural drug/kg; (3) positive control group, Ditiazem, 5 mg/kg. All the above samples are diluted with normal saline to the same volume of 3 ml/kg and were given to the patient through the duodenum.
(§2) 1.2 Experimental Method. The dogs are anesthetized with pentobarbital sodium. Chests were opened and coronary arterioles and the central part of the dorsal lower branch separated and tied to create an acute myocardial ischemia model. ECGs were recorded and the level of myocardial ischemia (increased section ST, ST) and area of myocardial ischemia (the total increased decimal places in section ST) were calculated. The oxygen content in the coronary artery was recorded. Blood serum creatine kinase (CK), lactate dehydrogenase (LDH), ET, TXB2 and 6-Keto-PGF1 were measured. The oxygen content of the aorta and coronary vein, and blood flow volume in the coronary arteries were measured to calculate myocardial oxygen consumption. Blood oxygen content in the coronary vein was measured to calculate myocardial oxygen content (myocardial oxygen content=(blood oxygen content in arteries-blood oxygen content in coronary veins)×blood flow volume in coronary artery/100).

The test system of data set [5] is hemorheology. Put plainly: Chronic pulmonary heart disease: hemorheologic markers. The data set is classed as in vivo, human. The text has this:
(§3) 90 cases of chronic pulmonary heart disease were selected based on the diagnosis standard set up during the National Pulmonary Heart Disease Congress in 1977. The patients were divided randomly into an Observation group and a Control group. The 60 cases in the Observation group took DSP, while the 30 cases in the Control group took persantin. Based on the objectives of: reduced inflammation, coughing cessation, dissolving of sputum, cardial and diuretic action, and cardiac function improvement, the Observation group was given 10 grains of DSP, 3 times a day. The Control group was given 50 mg of Poon Seng Ding each time, 3 times a day. Treatment lasted 1 month.

In data set [6] the test system is chronic pulmonary heart disease. Description: Chronic pulmonary heart disease, DSP vs persantin: efficacy. The data set is classed as in vivo, human. The note with it: 1 month.
Source text: as §3
(1) Obvious Efficacy. The symptoms such as coughing, asthma, pulmonary rales, syanosis were relieved or disappeared. The ascites and lower limbs sdema were disappeared as well. Heartbeat was under 100 times/min and cardiac function was improved above grade I-II. The urine volume per day increased by 600 ml and above, while the body weight decreased by 4%. The end-brush circulations were improved.
(3) Inefficacy. Above all markers were not improved.

The subject of data set [7] is thrombosis, platelet aggregation, coagulation. The note with it: single injection of 20 mg/kg; cited from earlier work.
The subject of data set [8] is ET, TXB2, 6-Keto-PGF1α. Description: Dog plasma ET, TXB2, 6-Keto-PGF1α. Particulars: dogs, Dan Shen Pill 2 g/kg, Diltiazen 5 mg/kg. The data set is classed as in vivo. How it is done: as §1, §2
In data set [9] the test system is hemicrania. Description: Hemicrania, DSP vs Flunarizine. The data set is classed as in vivo, human. The note with it: 8 weeks. As to the method: (2) Effects on hemicrania 58 patients with hemicrania were selected from clinics. They all qualify under International Headache Standards classifications. 10 tablets of DSP (25 mg/tablet) were given to the Treatment group, 3 times/day. 5 mg of Flunarizine was given to the control group, once a day, orally. The medication lasted 8 weeks. Treatment results and side effects were recorded every 2 weeks. No other pain-killing medications were taken within the 6 months.
Treatment standards. Controlled: Headaches disappeared with medication, and there was no reoccurrence after treatment ended; Obvious efficacy: The seriousness of headaches is reduced, duration is shortened, and onset frequency is reduced to 75% or more; Efficacy: The level of headache is reduced, and onset frequency is reduced 50%˜70%; Failure: No improvement in headaches.

Data set [10] relates to dizziness. Description: Dizziness, DSP vs lidocaine. The data set is classed as in vivo, human. The source says:
61 patients were divided into two groups at random. 29 patients were in the Treatment group, including 22 patients with insufficient blood supply to the cerebral artery, 7 patients with Meniere Disease, 5 patients with high blood pressure, and 2 patients with coronary heart disease. 32 patients were in the control group, including 22 patients with insufficient blood supply to the cerebral artery, 10 patients with Meniere Disease, 7 patients with high blood pressure, and 4 patients with coronary heart disease. 10 tablets of DSP were given to the Treatment group, 3-5 times/day for 3-7 days. 50 mg of lidocaine was injected into the Control group, once a day for 3-7 days.
Treatment method: (1) Obvious Efficacy: Dizziness and other companion symptoms disappeared, and there was no re-occurrence for 12 hrs after observation. (2) Efficacy: The level of dizziness and other symptoms disappeared. (3) Failure: No improvement.

[11] abbreviates: Ditiazen 5 mg/kg, 30 min after dosage.
Where [12] appears, read: Ditiazen 5 mg/kg, 60 min after dosage.
The mark [13] stands for this setting: Ditiazen 5 mg/kg, 90 min after dosage.
Where [14] appears, read: Ditiazen 5 mg/kg, 120 min after dosage.
Where [15] appears, read: Ditiazen 5 mg/kg, 180 min after dosage.
Where [16] appears, read: Ditiazen 5 mg/kg, after hypoxia before dosage.
Setting [17] is: Diltiazen 5 mg/kg, 30 min after dosage.
Setting [18] is: Diltiazen 5 mg/kg, 60 min after dosage.
Setting [19] is: Diltiazen 5 mg/kg, 90 min after dosage.
Where [20] appears, read: Diltiazen 5 mg/kg, 120 min after dosage.
[21] abbreviates: Diltiazen 5 mg/kg, 180 min after dosage.
Setting [22] is: Diltiazen 5 mg/kg, after hypoxia before dosage.
[23] abbreviates: Insufficient blood supply to the brain.

Regarding `O=P1(N(CCCl)CCCl)NCCCO1` (stereo not shown) [CP], in [1], the “Micro-rates (%)” value turned out to be 23.0 ± 4.0 % and the “Micronucleus Cells” value amounted to 138.

Turning to 3H-Borneol [Example 3H-Borneol], in data set [2] (oral administration), the diminishing half-lifetime was 5.3 h. In addition, in data set [2] (single intraveneous injection), the half-life time is 2.8 min.

Consider `Cc1nc(C)c(C)nc1C.O=P(O)(O)O` [TMP, tetramethylpyrazine phosphate], for which the Cmax (in general, the peak of the concentration-time curve) in data set [3] (TMP 5 mg/kg ig with previous borneol 5 mg/kg) is 931 ng/mL; in [3] (TMP 5 mg/kg ig without borneol) it was 562 ng/mL.

In the case of `COc1ccc([C@@H]2Sc3ccccc3N(CCN(C)C)C(=O)[C@@H]2OC(C)=O)cc1` [Ditiazen], the “CK, changing in percentage (before dosage = 100%)” value in data set [4] (setting [11]) was found to be 97.20 ± 12.50 %; in data set [4] (setting [12]), 108.84 ± 20.71 %; in data set [4] (setting [13]), 115.31 ± 19.97 %; in data set [4] (setting [14]), 314.91 ± 23.35 %; in data set [4] (setting [15]) it was 179.51 ± 10.60 %. Further, the “blood serum CK” value in data set [4] (setting [11]) was 660.40 ± 184.88 U/L; in data set [4] (setting [12]), 737.80 ± 159.04 U/L; in data set [4] (setting [13]) it was 820.80 ± 289.76 U/L; in [4] (setting [14]), 972.40 ± 347.28 U/L; in data set [4] (setting [15]), 1238.60 ± 309.12 U/L; in [4] (setting [16]), 699.60 ± 211.52 U/L. Further, in [4] (Ditiazen 5 mg/kg, before hypoxia (normal)), the “blood serum CK” value is recorded as 316.20 ± 63.04 U/L. Besides, the “CK, changing in percentage” value in data set [4] (setting [16]) is 219.80 ± 38.93 %.

Consider `OCCN(CCO)c1nc(N2CCCCC2)c2nc(N(CCO)CCO)nc(N3CCCCC3)c2n1` [persantin], for which, in data set [5] (After treatment, 1 month), the “Aggregation rate of platelet” value stood at 32.28 ± 20.30%, the Blood viscosity is 3.66 ± 0.58, the Fibrinogen was found to be 3.60 ± 0.23 g/L and the Hematocrit was 0.37 ± 0.05 VOL/%. Further, in data set [5] (before treatment), the “Aggregation rate of platelet” value amounted to 4.16 ± 2.32%, the Blood viscosity is on record as 4.35 ± 0.81, the Fibrinogen came out at 4.22 ± 0.34 g/L and the Hematocrit came to 0.48 ± 0.05 VOL/%. In [6], the “Efficacy, number of cases” value was 9; the “Efficacy, rate” value is on record as 0.3; the “Obvious efficacy, number of cases” value is listed as 14; the “Obvious efficacy, rate” value is given as 0.47. Further, in data set [6], the Total efficacy rate was found to be 0.76; the “Total efficacy, number of cases” value stood at 23; the “inefficacy, number of cases” value amounted to 7; the “inefficacy, rate” value is 0.23. In data set [6] (60 DSP, 30 persantin), this compound returned a Total efficacy rate of 76%.

As for `O=C(O)[C@H](O)Cc1ccc(O)c(O)c1` [Danshensu, D(+)-3,4-dihydroxyphenyl lactic acid], in data set [7], the duration of effect was 1 h and the “time of peak effect” value was 30 min.

With `COc1ccc([C@@H]2Sc3ccccc3N(CCN(C)C)C(=O)[C@@H]2OC(C)=O)cc1` [Diltiazen], the “LDH, changing in percentage (before dosage = 100%)” value was 101.14 ± 17.90 % in data set [4] (setting [17]); 92.58 ± 15.17 % in data set [4] (setting [18]); 93.31 ± 19.02 % in data set [4] (setting [19]); 121.32 ± 22.12% in data set [4] (setting [20]); 117.24 ± 26.69 % in data set [4] (setting [21]). For the same compound, the “blood serum LDH” value in data set [4] (setting [17]) turned out to be 143.40 ± 28.64 U/L; in data set [4] (setting [18]), 134.40 ± 46.48 U/L; in [4] (setting [19]), 153.00 ± 70.80 U/L; in data set [4] (setting [20]) it was 194.60 ± 76.72 U/L; in data set [4] (setting [21]) it was 164.80 ± 49.36 U/L; in [4] (setting [22]), 143.40 ± 28.64 U/L. In addition, the “blood serum LDH” value in [4] (Diltiazen 5 mg/kg, before hypoxia (normal)) is listed as 106.40 ± 19.12 U/L. Also, the “LDH, changing in percentage” value in data set [4] (setting [22]) amounted to 101.14 ± 17.90 %. The 6-Keto-PGF1α/TXB2 in data set [8] (30 min after dosage) came out at 1.507 ± 0.505; in data set [8] (60 min after dosage), 1.501 ± 0.358; in data set [8] (90 min after dosage), 1.980 ± 0.924; in data set [8] (120 min after dosage) it was 1.980 ± 0.924; in [8] (180 min after dosage), 1.801 ± 0.596; in data set [8] (after hypoxia before dosage), 143.40 ± 28.64. Moreover, the 6-Keto-PGF1α/TXB2 in data set [8] (before hypoxia (normal value)) was 106.40 ± 19.12. Further, the “6-Keto-PGF1α/TXB2, changing in percentage (before dosage = 100%)” value in [8] (30 min after dosage) was determined as 148.42 ± 17.35 %; in data set [8] (60 min after dosage) it was 155.44 ± 28.97 %; in [8] (90 min after dosage), 203.82 ± 83.25 %; in [8] (120 min after dosage), 203.82 ± 83.25 %; in [8] (180 min after dosage), 198.48 ± 87.02 %. Also, the “6-Keto-PGF1α/TXB2, changing in percentage” value in data set [8] (after hypoxia before dosage) amounted to 101.14 ± 17.90 %.

On to `Fc1ccc(C(c2ccc(F)cc2)N2CCN(C/C=C/c3ccccc3)CC2)cc1` [Flunarizine], for which, in [9], the “Controlled, number of cases” value came out at 5; the “Efficacy, number of cases” value was 7; the “Failure, number of cases” value amounted to 9; the “Obvious efficacy, number of cases” value is 7. The total efficacy in data set [9] came out at 67.86%.

With `CCN(CC)CC(=O)Nc1c(C)cccc1C` [lidocaine], in [10] (3-7 days, 29 DSP, 32 lidocaine patients), the total efficacy turned out to be 87.5%. In [10] (setting [23]), the “Efficacy, cases” value came out at 8; the “Failure, cases” value is listed as 2; the “Obvious Efficacy, cases” value is recorded as 12; the “Total efficacy, %” value was 91%. Moreover, the “Total efficacy, cases” value in data set [10] (setting [23]) turned out to be 20. In [10] (Meniere disease), the “Efficacy, cases” value worked out at 2; the “Failure, cases” value amounted to 2; the “Obvious Efficacy, cases” value amounted to 6; the “Total efficacy, %” value is listed as 80%. For the same compound, the “Total efficacy, cases” value in [10] (Meniere disease) worked out at 8. Moreover, in [10] (Total (all dizziness patients)), the “Efficacy, cases” value came to 10; the “Failure, cases” value was determined as 4; the “Obvious Efficacy, cases” value is reported as 18; the “Total efficacy, %” value stood at 87.5%. For the same compound, in data set [10] (Total (all dizziness patients)), the “Total efficacy, cases” value is reported as 28.
